Results: patent publication US20210121438A1, “METHODS FOR TREATING OR PREVENTING CONFORMATION DISEASES AND METHODS FOR DRUG SCREENING” (GARAGE BRAIN SCIENCE CO., LTD, priority 2018, published 2021)

Key:
[1] = biological target: T1, full-length TDP-43 recombinant protein (Homo sapiens, UniProt Q13148); assay: In vitro analysis of TDP-43 fiber formation (negative staining electron microscopy); type: biochemical
T1 construct: Three-micromolar full-length TDP-43 recombinant protein (GenWay); purchased GenWay
T1 sequence (Q13148 whole entry): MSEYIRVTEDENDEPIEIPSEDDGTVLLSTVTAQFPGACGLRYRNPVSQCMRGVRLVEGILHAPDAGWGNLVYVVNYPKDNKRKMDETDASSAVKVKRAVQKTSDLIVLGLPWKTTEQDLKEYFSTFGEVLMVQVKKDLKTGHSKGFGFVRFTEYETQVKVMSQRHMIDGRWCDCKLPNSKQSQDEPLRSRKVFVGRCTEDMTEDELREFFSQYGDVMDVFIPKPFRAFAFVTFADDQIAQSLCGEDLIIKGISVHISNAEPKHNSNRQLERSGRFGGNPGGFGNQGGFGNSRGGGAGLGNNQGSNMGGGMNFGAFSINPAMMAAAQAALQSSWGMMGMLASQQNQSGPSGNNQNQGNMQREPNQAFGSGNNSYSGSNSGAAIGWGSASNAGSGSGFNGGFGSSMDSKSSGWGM

[2] = system: GFP-TDP-43-IIPLD inclusion-expressing 293T cells; assay: TDP-43-IIPLD misfolded aggregates in transfected 293T cells (microscopy); type: cell-based
Experimental: Cell Culture and Drug Treatment: 293T cells were used throughout the experimental studies. 293T cells were grown in Dulbecco's modified Eagle's medium (DMEM)/F12, which was supplemented with 10% fetal bovine serum, 1% penicillin/streptomycin and 1% L-glutamate. Primary cultures of rat hippocampal neurons were prepared from embryonic day 17 rat embryos as previously described by (Wang et al, TDP-43, the signature protein of FTLD-U, is a neuronal activity-responsive factor. J. Neurochem. 105, 79T-806 (2008)). All procedures for handling the rat were carried out in accordance with the guidelines approved by the Institutional Animal Care and Utilization Committee, Academia Sinica. Hippocampal cells were plated on poly-1-lysine-coated coverslides at low density (10,000 cells per cm2) and cultured in the neurobasal medium/B27 (Invitrogen). The 293T cells were transfected using the calcium phosphate protocol according to the manufacturer's instructions and as previously described by Wang et al. (Wang et al., ProcNatlAcadSci USA. 99, 13583-13588 (2002). All of the plasmid constructs were described in Wang et al., Nature Communication, 2012). 293T cells (1×10^5) were seeded in each well of a six-well plate and incubated overnight in a 37° C. incubator with 5% CO2. To determine the effects of off-pathway stabilizers on the reduction of pathological-like aggregates, the cells were treated with baicalein and EGCG for 12, 24, or 48 h with the indicated concentrations (25 or 50 μM).
GFP-TDP-43 pathological-like (GFP-TDP-43-IIPLD) inclusion-expressing 293T cells were treated with or without 50 μM baicalein for 12 h following microscopic analysis and Western blotting validation. […] (FIG. 2c).

TDP-43 polymers = biological target: T2, TDP-43 polymers (Homo sapiens, UniProt Q13148); assay: Western blotting of TDP-43 polymers in nuclear, cytosolic and urea fractions; type: cell-based
T2 construct: endogenous in cells; host or cells: 293T
T2 sequence (Q13148 whole entry): as above
Experimental: Solubility Assay of TDP-43 and p53: Cells with or without transfection of TDP-43-FL or TDP-43-Q303P were lysed with RIPA buffer (50 mM Tris, 150 mM NaCl, 1 mM EDTA, 1% NP-40, pH 7.4), and the lysate was further fractionated by centrifugation at 16,000 g for 5 min at 4° C. The insoluble pellets were then dissolved in 8 M urea/50 mM Tris (pH 8.0). The proteins were identified by Western blotting using a polyclonal TDP-43 antibody or a monoclonal p53 antibody.
TDP-43 proteinopathies in FTLD/ALS with the VCP/97 mutation R155H have been characterized. The VCP/97 mutation R155H alters the functions of VCP/97, redistributes TDP-43 to the cytosol, and leads to form-insoluble aggregates of TDP-43.

[3] = system: TDP-43 in cells expressing progeria proteins; assay: Localization of TDP-43 in progeria-expressing cells (immunofluorescence); type: cell-based
Experimental: Immunohistochemistry: Fluorescence staining was performed as described previously (Wang et al., 2012). Cells were transfected with or without plasmids or siRNAs and grown for 24 to 48 hr. Cells were fixed with 3.7% paraformaldehyde in PBS at RT for 15 min and then permeabilized with 0.1% Triton X-100. The fixed cells were incubated with primary antibodies at RT for 2 hr followed by incubation with Cy2- or Cy3-labeled secondary antibodies (Molecular Probes). Slides were mounted using Vectashield DAPI H-1200 (Vector). Cellular fluorescence images were collected using an LSM710 META laser-scanning confocal microscope (Zeiss).
To further characterize whether TDP-43 proteins are present in the nuclear matrix, consisting of proteins such as lamina A/C, we double-stained TDP-43 (green) with lamina A/C (red) (FIG. 7). The TDP-43 fibrogranular framework was partially connected to lamina A/C (FIG. 7a, the arrow indicates the colocalization area). As defective lamin A can cause progeria and the a premature aging disorder HGPS, overexpression of progeria proteins is considered a cell model of aging and allowed us to explore the mechanistic link between TDP-43 and aging or a lamin A pathology. We thus overexpressed progeria proteins and examined TDP-43 localization, the efficiency of TDP-43PLD-mediated exon 9 skipping and TDP-43 polymers. […]

[4] = system: progeria-expressing cells; assay: Nuclear shape in progeria-expressing cells (anti-lamin A/C immunostaining); type: cell-based; details: progeria-expressing cells (HGPS model)
[5] = system: SMNA7 aggregates in 293T cells; assay: SMNA7 aggregate formation in 293T cells; type: cell-based
Source text: (§1) We investigate whether baicalein can act as a pharmacological chaperone to refold misfolded SMNA7 into a functional prion-like domain, as shown in FIG. 8 (FIG. 10a). […] PFN1 is a known SMN interactor in the cytosol. We further examined whether baicalein attenuated the degradation of the SMNA7 protein. […] We found baicalein increased the length of axons from NSC34 cells expressing SMNA7 by approximately 2-fold (FIG. 10g).

SMNA7-expressing cells = assay: Cell viability assay of SMNA7-expressing cells; type: cell-based; details: 50 μM baicalein
Source text: as §1

PFN1 and SMNA7 = biological target: T3, PFN1 and SMNA7 (Homo sapiens, UniProt Q16637); assay: Co-immunoprecipitation of PFN1 and SMNA7; type: cell-based; details: in the presence of baicalein
T3 construct: expressed in transfected cells
T3 sequence (Q16637 1-282 isoform Q16637-3): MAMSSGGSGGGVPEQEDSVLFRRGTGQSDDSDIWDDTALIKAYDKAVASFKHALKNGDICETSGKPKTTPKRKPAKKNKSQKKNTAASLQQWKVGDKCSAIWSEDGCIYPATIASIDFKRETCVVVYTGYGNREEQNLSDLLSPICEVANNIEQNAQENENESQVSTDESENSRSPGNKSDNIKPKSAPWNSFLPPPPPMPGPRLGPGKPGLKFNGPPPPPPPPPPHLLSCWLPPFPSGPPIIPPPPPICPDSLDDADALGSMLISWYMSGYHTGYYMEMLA
Source text: as §1

SMNA7 protein = biological target: T4, SMNA7 protein (Homo sapiens, UniProt Q16637); assay: SMNA7 protein degradation (Western blotting); type: cell-based; details: baicalein
T4 construct: expressed in transfected cells
T4 sequence (Q16637 1-282 isoform Q16637-3): as above
Source text: as §1

[6] = system: NSC34 cells expressing SMNA7; assay: Axon/neurite length of NSC34 motor neurons expressing SMNA7; type: cell-based; details: NSC34 cells expressing SMNA7, baicalein 50 μM
Source text: as §1
We increased the amount of functional prion-like domains by overexpressing the TDP-43 prion-like domain (TDP-43-PLD) in NSC34 motor neuron cells expressing the SMNA7 proteins to confirm that the reduced level of the functional prion-like conformer caused axon degeneration in SMNΔ7-expressing neurons. The TDP-43-PLD is expected to adopt a common, structurally similar β sheet to compensate for the prion-like function of SMN through hetero-polymerization. […] Thus, the level of the prion-like conformer is critical for motor neuron survival, and other functionally unrelated prion-like proteins can compensate for the function of the defective protein.

length of baicalein-inducing TDP-43 polymers ([1]; 3 μM TDP-43 with 3 μM baicalein, RT, agitation, 30-90 min, fibers without compound 3 to 10 μm): 0.15-0.9 μm
TDP-43 polymers (TDP-43 polymers; baicalein-treated VCP/p97 R155H cells): increased TDP-43 polymers
interactions between PFN1 and SMNA7 (PFN1 and SMNA7): significantly increased
SMNA7 degradation (SMNA7 protein): significantly reduced SMNA7 degradation
SMILES: O=c1cc(-c2ccccc2)oc2cc(O)c(O)c(O)c12 [baicalein]
remodeling of TDP-43 fibers, oligomers or natively unfolded monomers ([1]; equimolar baicalein, time-dependent): efficiently remodeled into ordered TDP-43 polymers
TDP-43-IIPLD aggregates, statistical analysis of dose dependence [2]: dosage-dependent reduction of TDP-43-IIPLD aggregates
assembly of TDP-43-IIPLD proteinaceous nucleating particles ([2]; 50 μM): inhibited the assembly of TDP-43-IIPLD proteinaceous nucleating particles
TDP-43 polymers in nuclear fraction (TDP-43 polymers; 293T cells, 0, 25 or 50 μM baicalein): compensatory increase in the nuclear fraction
nuclear localization of TDP-43 [3]: significantly induced the retention of nuclear TDP-43
nuclear shape defects [4]: corrected nuclear shape defects in HGPS
formation of SMNA7 aggregates [5]: decreased the formation of SMNA7 aggregates in 293T cells in a dose-dependent manner
increase of viability of SMNA7 cells (SMNA7-expressing cells): approximately 2 fold
increase of length of axons [6]: approximately 2 fold
